From patent US20250197368A1 (priority 2020, published 2025)
Read-outs that look alike come from different tables or passages of the source.

How the values were obtained:
[1] = target: human α2β3γ2 GABAARs (benzodiazepine site) (Homo sapiens (Human), UniProt P18507+P47869); assay: In vitro radioligand binding assay ([3H]Ro15-1788 displacement), α2-GABAAR Ki
Protocol: The affinity (Ki) of compounds for the benzodiazepine site of human recombinant GABAARs was measured by their ability to inhibit the binding of the selective benzodiazepine antagonist [^3H]Ro15-1788 ([^3H] flumazenil).
Mouse L(tk^−) cells stably expressing human α1β3γ2, α2β3γ2, α3β3γ2, α5β3γ2 GABAARs were generated by transfection of the individual subunits in the dexamethasone-inducible expression vector pMSGneo in mouse L(tk^−) cells (Hadingham et al., 1993, Mol. Pharmacol. 43:970-975 and 1993, Mol. Pharmacol. 44:1211-1218).
L(tk^−) cells stably expressing human α1β3γ2, α2β3γ2, α3β3γ2, α5β3γ2 GABAARs were maintained in DMEM F12 medium supplemented with 10% Foetal Bovine Serum, 1% Penicillin/Streptomycin and 1 mg/mL Geneticin G418 in an incubator at 37° C. with a humidified atmosphere with 5% CO2. Dexamethasone was added to the culture medium to induce GABAAR expression.
L(tk−) cells were harvested and membranes were prepared for each receptor combination in either TE buffer (10 mM Tris·CI/0.1 mM EDTA, pH 7.5) or phosphate buffer (K2PO4 10 mM, pH 7.0) (Hadingham et al. (1992) Proc. Natl. Acad. Sci. USA; 89 (14): 6378-82). Protein concentration, receptor expression and the Kd of [^3H]Ro15-1788 were determined before Ki value of the compounds were evaluated. For Kd evaluation, saturation binding curves were obtained by incubating membrane with various concentrations of [^3H]Ro15-1788 (82.5 Ci/mM), with nonspecific binding measured in the presence of 1-3 μM TP003.
For Ki evaluation, cell membranes were incubated with 4 nM [^3H]Ro15-1788 along with a range of concentrations of test compound. Nonspecific binding was determined using 1-3 μM TP003. All incubations were performed for 1 hour at 4° C. in assay buffer. The total assay volume was 0.5 mL, containing 40 μg/well α1β3γ2, 30 μg/well α2β3γ2, 40 μg/well α3β3γ2 and 30 μg/well for α5β3γ2 of membrane protein. Incubations were terminated by filtration and washing with ice cold Tris-HCl buffer (50 mM, pH=7.4) over Whatman GF/B filters and the radioactivity of the filters was measured using liquid scintillation counting.
The % inhibition of [^3H]Ro15-1788 binding was plotted as a function of compound concentration and the IC50 calculated. From the IC50, the affinity (Ki) was calculated using the method of Cheng and Prusoff using the Kd values obtained for [^3H]Ro15-1788.

human α2β3γ2 GABAARs = assay: In vitro electrophysiological recording assay (automated patch-clamp), α2-GABAAR relative efficacy; format: cell-based; details: % efficacy normalised to diazepam; GABA EC10-20; concentration generally >= 100 times Ki
Protocol: The efficacy of modulators was evaluated using the automated patch-clamp platforms QPatch16 (Sophion, Copenhagen, Denmark) or SyncroPatch 384PE (Nanion, Germany).
For QPatch electrophysiology testing L(tk^−) cells stably expressing human α1β3γ2, α2β3γ2, α3β3γ2, α5β3γ2 GABAARs were used. HEK293 cells stably expressing human α1β3γ2L, α2β3γ2L, α3β3γ2L and α5β3γ2L GABAARs were used for the SyncroPatch 384PE experiments.
All experiments were carried out at room temperature (20-22° C.) using a standard whole cell procedure and physiological solutions. Gigaseals were formed upon execution of a combined suction/voltage protocol with subsequent increased suction leading to the whole-cell configuration.
The currents recorded were acquired at either 1 KHz or 2 KHz and filtered using a Bessel filter. Whole-cell currents were measured at a holding potential of-65 mV (QPatch) or −80 mV (SyncroPatch).
For QPatch experiments, the extracellular solution contained of: 145 mM NaCl, 4 mM KCl, 1 mM MgCl2, 2 mM CaCl2), 10 mM HEPES, 10 mM D-glucose (pH 7.4), and the intracellular solution consisted of: 96 mM KCl, 28 mM CsCl, 25 mM KOH, 4.3 mM CaCl2), 1.4 mM MgCl2, 10 mM EGTA, 10 mM HEPES, 3 mM MgATP (pH 7.2). The osmolarities of the extracellular and intracellular solutions were 305 and 295 mOsm respectively.
For SyncroPatch experiments, the extracellular recording solution contained: 140 mM NaCl, 4 mM KCl, 2 mM CaCl2), 1 mM MgCl2, 10 mM HEPES, 5 mM glucose (pH 7.4 with NaOH and osmolarity of c. 300-310 mOsm). The intracellular recording solution consisted of: 90 mM KCl, 50 mM KF, 1.5 mM MgCl2, 11.1 mM EGTA and 10 mM HEPES (pH 7.2 with KOH and osmolarity of c. 300 mOsm). 2 mM of NaATP was added to the intracellular solution on the day of testing.
The effects of modulators were evaluated in the presence of a submaximal GABA concentration, giving typically less than 30% activation of the response elicited by a saturating GABA concentration. To check and ensure baseline current stability before compound addition, two to five consecutive applications of GABA EC10-20 separated by wash steps were performed before compound addition. The test compound was applied 1 min at least prior to co-application with GABA EC10-20. Following a further wash step, a saturating concentration of GABA was applied at the end of each recording, allowing the accurate evaluation for each cell of the percentage baseline activation elicited by the submaximal GABA applied.
The compounds were first dissolved in DMSO as a 10 mM stock and then further diluted to the testing concentrations so that the final DMSO concentration in the extracellular recording solution was 0.1% (QPatch) or 0.2% (SyncroPatch).
The % efficacy of modulators was determined from the GABA elicited currents recorded in the presence and absence of the test compound, using the formula:
[((compound peak current−leak)−(GABA peak current-leak))/(GABA peak current−leak)]*100,
where ‘leak’ is the leak baseline current at the holding potential, ‘compound peak current’ is the current elicited by co-application of compound and GABA, and ‘GABA peak current’ is the current elicited by GABA alone at the last GABA application before compound addition. The results were presented as ‘relative efficacy’ for each compound generally at a concentration equal or higher than 100 times their determined Ki. The relative efficacy of a compound was calculated by normalising its % efficacy to the corresponding % efficacy of diazepam that was separately determined.

Chain of human α2β3γ2 GABAARs (benzodiazepine site) (P47869 29-451): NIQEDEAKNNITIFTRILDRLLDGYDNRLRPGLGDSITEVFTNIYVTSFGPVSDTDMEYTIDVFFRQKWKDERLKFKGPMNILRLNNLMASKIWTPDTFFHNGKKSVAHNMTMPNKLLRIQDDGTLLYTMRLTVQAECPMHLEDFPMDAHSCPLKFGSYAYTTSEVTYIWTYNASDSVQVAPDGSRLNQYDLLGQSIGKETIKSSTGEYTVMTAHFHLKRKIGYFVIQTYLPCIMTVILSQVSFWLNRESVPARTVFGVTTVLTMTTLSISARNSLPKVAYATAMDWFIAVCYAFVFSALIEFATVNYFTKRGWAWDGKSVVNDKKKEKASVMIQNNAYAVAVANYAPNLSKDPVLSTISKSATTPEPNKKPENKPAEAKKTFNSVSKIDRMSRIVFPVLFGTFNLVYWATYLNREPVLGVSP
Chain of human α2β3γ2 GABAARs (benzodiazepine site) (P28472 26-473 partner): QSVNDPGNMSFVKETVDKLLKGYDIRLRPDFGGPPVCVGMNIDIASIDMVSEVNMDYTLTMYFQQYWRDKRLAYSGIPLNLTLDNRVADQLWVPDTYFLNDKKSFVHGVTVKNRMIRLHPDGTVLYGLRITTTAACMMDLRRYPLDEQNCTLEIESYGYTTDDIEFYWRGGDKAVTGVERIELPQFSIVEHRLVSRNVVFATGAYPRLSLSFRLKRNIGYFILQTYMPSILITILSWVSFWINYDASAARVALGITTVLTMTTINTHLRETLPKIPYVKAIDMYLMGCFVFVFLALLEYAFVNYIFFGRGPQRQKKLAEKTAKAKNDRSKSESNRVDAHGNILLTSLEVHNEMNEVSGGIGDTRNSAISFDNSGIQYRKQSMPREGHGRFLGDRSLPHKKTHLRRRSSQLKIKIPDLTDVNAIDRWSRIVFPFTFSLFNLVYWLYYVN
Chain of human α2β3γ2 GABAARs (benzodiazepine site) (P18507 40-475): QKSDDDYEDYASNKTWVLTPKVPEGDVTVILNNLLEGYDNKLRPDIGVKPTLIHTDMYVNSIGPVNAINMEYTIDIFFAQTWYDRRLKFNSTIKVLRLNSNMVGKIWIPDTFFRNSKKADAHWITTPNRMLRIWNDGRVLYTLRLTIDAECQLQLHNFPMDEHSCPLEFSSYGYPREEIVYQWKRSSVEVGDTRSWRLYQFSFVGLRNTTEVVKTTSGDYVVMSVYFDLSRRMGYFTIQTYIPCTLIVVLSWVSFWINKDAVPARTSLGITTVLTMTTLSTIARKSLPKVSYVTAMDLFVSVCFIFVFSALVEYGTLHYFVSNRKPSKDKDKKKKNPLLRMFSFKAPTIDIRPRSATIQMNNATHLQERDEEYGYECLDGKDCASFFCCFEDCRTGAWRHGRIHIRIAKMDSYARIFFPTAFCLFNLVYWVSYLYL

| Compound | Ki [1] | α2-GABAAR Relative Efficacy (vs. Diazepam) (human α2β3γ2 GABAARs) | Ki ([1]; L(tk-) cell membranes, 4 nM [3H]Ro15-1788, read-out: α2-GABAAR Ki) |
| --- | --- | --- | --- |
| CCCNC(=O)c1c(N)c2cccc(-c3cnccc3OCC)c2[nH]c1=O [Example 19, 4-Amino-8-(4-ethoxypyridin-3-yl)-2-oxo-N-propyl-1,2-dihydroquinoline-3-carboxamide] | 21.5 nM | 0.23 |  |
| CCCNC(=O)c1c(N)c2cccc(-c3cnccc3OC(C)C)c2[nH]c1=O [Example 20, 4-Amino-8-(4-isopropoxypyridin-3-yl)-2-oxo-N-propyl-1,2-dihydroquinoline-3-carboxamide] |  | 0.16 | 245 nM |
| CCCNC(=O)c1c(N)c2cccc(-c3cnccc3COC)c2[nH]c1=O [Example 21, 4-Amino-8-(4-(methoxymethyl)pyridin-3-yl)-2-oxo-N-propyl-1,2-dihydroquinoline-3-carboxamide] | 29.8 nM | 0.12 |  |
| CCCNC(=O)c1c(N)c2cccc(-c3cncc(F)c3)c2[nH]c1=O [Example 22, 4-Amino-8-(5-fluoro-3-pyridyl)-2-oxo-N-propyl-1H-quinoline-3-carboxamide] | 13.6 nM | 0.19 |  |
| CCCNC(=O)c1c(N)c2cccc(-c3cncc(OC)c3C)c2[nH]c1=O [Example 24, 4-Amino-8-(5-methoxy-4-methylpyridin-3-yl)-2-oxo-N-propyl-1,2-dihydroquinoline-3-carboxamide] | 4.11 nM | 0.21 |  |
| CCCNC(=O)c1c(N)c2cccc(-c3cncc(OCC)c3)c2[nH]c1=O [Example 26, 4-Amino-8-(5-ethoxypyridin-3-yl)-2-oxo-N-propyl-1,2-dihydroquinoline-3-carboxamide] | 5.58 nM | 0.15 |  |
| CCCNC(=O)c1c(N)c2cccc(-c3cncc(OC4CC4)c3)c2[nH]c1=O [Example 28, 4-Amino-8-(5-cyclopropoxypyridin-3-yl)-2-oxo-N-propyl-1,2-dihydroquinoline-3-carboxamide] | 9.07 nM | 0.2 |  |
| CCCNC(=O)c1c(N)c2cccc(-c3cncc(OCc4ccc(F)cn4)c3)c2[nH]c1=O [Example 29, 4-Amino-8-(5-((5-fluoropyridin-2-yl)methoxy)pyridin-3-yl)-2-oxo-N-propyl-1,2-dihydroquinoline-3-carboxamide] | 6.66 nM | 0.22 |  |
| CCCNC(=O)c1c(N)c2cccc(-c3ccc(CO)nc3)c2[nH]c1=O [Example 30, 4-Amino-8-[6-(hydroxymethyl)-3-pyridyl]-2-oxo-N-propyl-1H-quinoline-3-carboxamide] | 4.76 nM | 0.43 |  |
| CCCNC(=O)c1c(N)c2cccc(-c3ccncc3)c2[nH]c1=O [Example 31, 4-Amino-2-oxo-N-propyl-8-(pyridin-4-yl)-1,2-dihydroquinoline-3-carboxamide] | 3.28 nM | 0.24 |  |
| CCCNC(=O)c1c(N)c2cccc(-c3cc(C)ncc3F)c2[nH]c1=O [Example 33, 4-Amino-8-(5-fluoro-2-methyl-4-pyridyl)-2-oxo-N-propyl-1H-quinoline-3-carboxamide] | 0.67 nM | 0.39 |  |
| CCCNC(=O)c1c(N)c2cccc(-c3cc(OCC)ncc3F)c2[nH]c1=O [Example 35, 4-Amino-8-(2-ethoxy-5-fluoropyridin-4-yl)-2-oxo-N-propyl-1,2-dihydroquinoline-3-carboxamide] | 2.45 nM | 0.52 |  |
| CCCNC(=O)c1c(N)c2cccc(-c3ccncn3)c2[nH]c1=O [Example 36, 4-Amino-2-oxo-N-propyl-8-pyrimidin-4-yl-1H-quinoline-3-carboxamide] | 3.69 nM | 0.05 |  |
| CCCNC(=O)c1c(N)c2cccc(-c3ncncc3OC)c2[nH]c1=O [Example 37, 4-Amino-8-(5-methoxypyrimidin-4-yl)-2-oxo-N-propyl-1H-quinoline-3-carboxamide] | 7.55 nM | 0.78 |  |
| CCCNC(=O)c1c(N)c2cccc(-c3ccnc(C)n3)c2[nH]c1=O [Example 38, 4-Amino-8-(2-methylpyrimidin-4-yl)-2-oxo-N-propyl-1,2-dihydroquinoline-3-carboxamide] | 1.09 nM | 0.18 |  |
| CCCNC(=O)c1c(N)c2cccc(-c3nc(C)ncc3C#N)c2[nH]c1=O [Example 39, 4-Amino-8-(5-cyano-2-methyl-pyrimidin-4-yl)-2-oxo-N-propyl-1H-quinoline-3-carboxamide] | 9.31 nM | −0.06 |  |
| CCCNC(=O)c1c(N)c2cccc(-c3nc(N)ncc3F)c2[nH]c1=O [Example 41, 4-Amino-8-(2-amino-5-fluoropyrimidin-4-yl)-2-oxo-N-propyl-1,2-dihydroquinoline-3-carboxamide] | 0.4 nM | 0.13 |  |
| CCCNC(=O)c1c(N)c2cccc(-c3nc(OCCOC)ncc3F)c2[nH]c1=O [Example 43, 4-Amino-8-(5-fluoro-2-(2-methoxyethoxy)pyrimidin-4-yl)-2-oxo-N-propyl-1,2-dihydroquinoline-3-carboxamide] | 1.47 nM | 0.14 |  |
| CCCNC(=O)c1c(N)c2cccc(-c3cncnc3OC)c2[nH]c1=O [Example 44, 4-Amino-8-(4-methoxypyrimidin-5-yl)-2-oxo-N-propyl-1H-quinoline-3-carboxamide] | 18.6 nM | 0.30 |  |
| CCCNC(=O)c1c(N)c2cccc(-c3cnccn3)c2[nH]c1=O [Example 45, 4-Amino-2-oxo-N-propyl-8-(pyrazin-2-yl)-1,2-dihydroquinoline-3-carboxamide] | 5.04 nM | 0.11 |  |
